Laboratory results taken from US12611394B2, “Use of ginkgolide a in the treatment of autism” (CENTER FOR EXCELLENCE IN MOLECULAR CELL SCIENCE, CHINESE …, priority 2019, dated 2026).

How the values were obtained:
Type in all cases: in vivo, mouse
[1] = test system: heterozygous mutant mice carrying NR2F1 gene point mutation; assay: Three-box experiment (sociability and social novelty test) after administration of ginkgolide A; settings: mutant (+/m) mice, gavage 2 mg/kg once a day, 7-8 weeks after birth, tested at 8 weeks; FIG. 11
Protocol: a. Experimenter A entered the behavior room one hour before the experiment, took out a cage (four) of the experimental mice placed in the next room and placed them in the behavior room 1 hour. Meanwhile, the two mice needed in the experiment (note that the mice used here and the experimental mice cannot be in the same nest, and the sex should be the same) were placed in the behavior room 1 hour. Turn on the light to adapt it to the environment; b. Experimenter A started to clean the three boxes of equipment used in the experiment about half an hour before the experiment, sprayed the 30% alcohol on all parts of the three boxes, wiped gently with a white cloth, and then wiped dry with a new clean white cloth. Then two cages and two objects were washed. And the cloth used to block personnel and the experimental area was put up. c. At the same time, experimenter B began to debug the computer operating software: open the three-box experimental program and confirm whether the positions of the three boxes coincide with the position divided by the software. If not, please assist experimenter A in adjusting. […] After everything was ready, in the first round of the experiment, experimenter A put identical objects in areas 2 and 3, such as bottle caps. […] 5 min later, the experiment was ready to start. […] The experiment lasted 10 min, and the software recorded the time and distance of mice in each area. […]

[2] = test system: heterozygous mutant mice carrying NR2F1 gene point mutation; assay: Self-grooming experiment after administration of ginkgolide A; settings: mutant (+/m) mice, gavage 2 mg/kg once a day, 7-8 weeks after birth, tested at 8 weeks; FIG. 12
Protocol: The experimental mice were placed in a feeding cage with the bottom covered with feed and the height was no more than 1 cm. The time of grooming behavior in mice in 10 minutes was recorded. The grooming position includes face, head, neck, ears, etc. Subsequent self-grooming experiments were conducted to detect repetitive stereotyped behaviors. […] Ginkgolide A was administered to heterozygous mutant mice. The detailed administration scheme was as follows: the administration method was gavage treatment, the concentration of ginkgolide A was 2 mg/kg, the administration time is 7-8 weeks after the birth of mutant mice, and the administration frequency was once a day.

[3] = test system: heterozygous mutant mice carrying NR2F1 gene point mutation; assay: Elevated-plus maze experiment after administration of ginkgolide A; settings: mutant (+/m) mice, gavage 2 mg/kg once a day, 7-8 weeks after birth, tested at 8 weeks; FIG. 13
Protocol: The related anxiety state of mice were investigated by using the characteristics that mice like to explore in the new environment and the contradictory behavior of fear of heights with open arms at heights. In order to increase the total number of mice entering the arm and avoid hiding in the closed arm, the animals were usually placed in an open environment for 5 minutes and then placed in the maze. Similarly, the mice were placed in a room with an elevated experimental device to adapt to the environment one hour before the start of the experiment, with the red light turned on, and the room temperature was kept at 25° C. At the beginning of the experiment, hold the mouse into the palm of the hand, place it in the middle of the cross facing the closed arm, and quickly leave this room. Then another person started recording and tracking the activity movement of the mouse in another room. In the process, the times of the experimental mouse entering the open arm and the closed arm was counted, and the time of staying in the open arm and the closed arm was counted respectively; after the whole process was recorded for 5 minutes for the experiment, the mice were gently stroked, and put back into the cage. The elevated-plus table was cleaned with 70% alcohol for the experiment of the next mouse. The elevated-plus experiment is mainly used to detect the anxiety behavior of mice. […]

Compound: C[C@@H]1C(=O)O[C@H]2C[C@@]34[C@H]5C[C@@H](C(C)(C)C)[C@]36[C@@H](OC(=O)[C@@H]6O)O[C@@]4(C(=O)O5)[C@]21O [ginkgolide A]
- time of interaction with similar mice (sociability) [1]: significantly increased
- time of interaction with unfamiliar mice (social novelty) [1]: significantly increased
- self-grooming time [2]: significantly reduced
- time to explore the open arm [3]: increased significantly
